Measured values: paper PMC4323178 (Journal of thrombosis and haemostasis : JTH, 2011)

Tests used:
Conditions in all cases: SEM
DR1501 = DR1501 (Homo sapiens, UniProt P01903+P01911); assay type: binding
HLA-DR0101 = HLA-DR0101 (Homo sapiens, UniProt P01903+P01911, A100R/D57E/F55L/F60I/F76Y/I96L/L162R/M171V/P40L/Q125E/R42F/V115G/Y59C); assay: biochemical
DR0301 = DR0301 (Homo sapiens, UniProt P01903+P01911, A100K/A102G/A103R/A169T/F55Y/I96L/K41T/L162R/M171V/P40S/Q125H/Q178H/Q39Y/R42S/S66N/T106N/W38E/Y61H); assay type: binding

IC50 (DR0301)	Structure (SMILES)	IC50 (DR1501)	IC50 (HLA-DR0101)
	CC[C@H](C)[C@H](NC(=O)[C@H](CC(N)=O)NC(=O)[C@H](CCC(=O)O)NC(=O)[C@@H](NC(=O)[C@H](CC(C)C)NC(=O)[C@H](Cc1ccc(O)cc1)NC(=O)[C@H](Cc1c[nH]c2ccccc12)NC(=O)[C@H](CO)NC(=O)[C@H](CCCNC(=N)N)NC(=O)[C@H](CC(N)=O)NC(=O)[C@@H](N)CCC(=O)O)[C@@H](C)O)C(=O)N[C@@H](CCC(N)=O)C(=O)N[C@@H](CS)C(=O)N[C@@H](Cc1ccccc1)C(=O)N[C@@H](CC(C)C)C(=O)N1CCC[C@H]1C(=O)N[C@@H](CC(N)=O)C(=O)N1CCC[C@H]1C(=O)N[C@@H](C)C(=O)NCC(=O)O [FVIII581–600,593C]	56 ± 4 µM	50 ± 3 µM
50 ± 4 µM	CC[C@H](C)[C@H](NC(=O)[C@H](CC(N)=O)NC(=O)[C@@H](N)CCC(=O)O)C(=O)N[C@@H](CCC(N)=O)C(=O)N[C@@H](CCCNC(=N)N)C(=O)N[C@@H](Cc1ccccc1)C(=O)N[C@@H](CC(C)C)C(=O)N1CCC[C@H]1C(=O)N[C@@H](CC(N)=O)C(=O)N1CCC[C@H]1C(=O)N[C@@H](C)C(=O)NCC(=O)N[C@H](C(=O)N[C@@H](CCC(N)=O)C(=O)N[C@@H](CC(C)C)C(=O)N[C@@H](CCC(=O)O)C(=O)N[C@@H](CC(=O)O)C(=O)N1CCC[C@H]1C(=O)N[C@@H](CCC(=O)O)C(=O)N[C@@H](Cc1ccccc1)C(=O)O)C(C)C [FVIII589–608]		
